# Reference: PubChem BioAssay (NCI)
#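 A five-concentration, 48-hour dose response in 96-well plates underlies each endpoint, interpolated linearly between surrounding concentrations. TGI: concentration producing complete growth inhibition.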
# Tests used:
# Test in all cases: NCI tumour cell line growth inhibition, 48 h
# 786-0 renal = tested on: 786-0 renal
# A498 renal = tested on: A498 renal
# A549 NSCLC = tested on: A549 NSCLC
# ACHN renal = tested on: ACHN renal
# BT-549 breast = tested on: BT-549 breast
# CAKI-1 renal = tested on: CAKI-1 renal
# CCRF-CEM leukemia = tested on: CCRF-CEM leukemia
# COLO 205 colon = tested on: COLO 205 colon
# DLD-1 colon = tested on: DLD-1 colon
# DMS 114 small cell lung = tested on: DMS 114 small cell lung
# DMS 273 small cell lung = tested on: DMS 273 small cell lung
# DU-145 prostate = tested on: DU-145 prostate
# EKVX NSCLC = tested on: EKVX NSCLC
# HCC-2998 colon = tested on: HCC-2998 colon
# HCT-116 colon = tested on: HCT-116 colon
# HCT-15 colon = tested on: HCT-15 colon
# HL-60(TB) leukemia = tested on: HL-60(TB) leukemia
# HOP-18 NSCLC = tested on: HOP-18 NSCLC
# HOP-62 NSCLC = tested on: HOP-62 NSCLC
# HOP-92 NSCLC = tested on: HOP-92 NSCLC
# HS 578T breast = tested on: HS 578T breast
# HT29 colon = tested on: HT29 colon
# IGROV1 ovarian = tested on: IGROV1 ovarian
# K-562 leukemia = tested on: K-562 leukemia
# KM12 colon = tested on: KM12 colon
# KM20L2 colon = tested on: KM20L2 colon
# LOX IMVI melanoma = tested on: LOX IMVI melanoma
# LXFL 529 NSCLC = tested on: LXFL 529 NSCLC
# M14 melanoma = tested on: M14 melanoma
# M19-MEL melanoma = tested on: M19-MEL melanoma
# MALME-3M melanoma = tested on: MALME-3M melanoma
# MCF7 breast = tested on: MCF7 breast
# MDA-MB-435 = tested on: MDA-MB-435
# MDA-N = tested on: MDA-N
# MOLT-4 leukemia = tested on: MOLT-4 leukemia
# NCI-H226 lung = tested on: NCI-H226 lung
# NCI-H23 lung = tested on: NCI-H23 lung
# NCI-H460 lung = tested on: NCI-H460 lung
# NCI-H522 lung = tested on: NCI-H522 lung
# NCI/ADR-RES ovarian = tested on: NCI/ADR-RES ovarian
# OVCAR-3 ovarian = tested on: OVCAR-3 ovarian
# OVCAR-4 ovarian = tested on: OVCAR-4 ovarian
# OVCAR-5 ovarian = tested on: OVCAR-5 ovarian
# OVCAR-8 ovarian = tested on: OVCAR-8 ovarian
# PC-3 prostate = tested on: PC-3 prostate
# RPMI-8226 leukemia = tested on: RPMI-8226 leukemia
# RXF 393 renal = tested on: RXF 393 renal
# RXF-631 renal = tested on: RXF-631 renal
# SF-268 CNS = tested on: SF-268 CNS
# SF-295 CNS = tested on: SF-295 CNS
# SF-539 CNS = tested on: SF-539 CNS
# SK-MEL-2 melanoma = tested on: SK-MEL-2 melanoma
# SK-MEL-28 melanoma = tested on: SK-MEL-28 melanoma
# SK-MEL-5 melanoma = tested on: SK-MEL-5 melanoma
# SK-OV-3 ovarian = tested on: SK-OV-3 ovarian
# SN12C renal = tested on: SN12C renal
# SNB-19 CNS = tested on: SNB-19 CNS
# SNB-75 CNS = tested on: SNB-75 CNS
# SR leukemia = tested on: SR leukemia
# SW-620 colon = tested on: SW-620 colon
# T-47D breast = tested on: T-47D breast
# TK-10 renal = tested on: TK-10 renal
# U251 CNS = tested on: U251 CNS
# UACC-257 melanoma = tested on: UACC-257 melanoma
# UACC-62 melanoma = tested on: UACC-62 melanoma
# UO-31 renal = tested on: UO-31 renal
# XF 498 CNS = tested on: XF 498 CNS
# SNB-78 CNS = tested on: SNB-78 CNS
structure (smiles),measurement,setting,value
CCOC(=O)NC(=O)c1cn(CCCOC(=O)CCCCCCCCC(=O)OCCCn2cc(C(=O)NC(=O)OCC)c(=O)n(C)c2=O)c(=O)n(C)c1=O,TGI,786-0 renal,> 100 µM
same,TGI,A498 renal,> 100 µM
same,TGI,A549 NSCLC,> 100 µM
same,TGI,ACHN renal,> 100 µM
same,TGI,BT-549 breast,> 100 µM
same,TGI,CAKI-1 renal,> 100 µM
same,TGI,CCRF-CEM leukemia,> 46.4 µM
same,TGI,COLO 205 colon,> 100 µM
same,TGI,DLD-1 colon,> 100 µM
same,TGI,DMS 114 small cell lung,> 100 µM
same,TGI,DMS 273 small cell lung,> 100 µM
same,TGI,DU-145 prostate,> 100 µM
same,TGI,EKVX NSCLC,> 100 µM
same,TGI,HCC-2998 colon,> 100 µM
same,TGI,HCT-116 colon,> 100 µM
same,TGI,HCT-15 colon,> 100 µM
same,TGI,HL-60(TB) leukemia,> 100 µM
same,TGI,HOP-18 NSCLC,> 100 µM
same,TGI,HOP-62 NSCLC,> 96.6 µM
same,TGI,HOP-92 NSCLC,> 100 µM
same,TGI,HS 578T breast,> 100 µM
same,TGI,HT29 colon,> 100 µM
same,TGI,IGROV1 ovarian,> 100 µM
same,TGI,K-562 leukemia,> 100 µM
same,TGI,KM12 colon,> 100 µM
same,TGI,KM20L2 colon,> 100 µM
same,TGI,LOX IMVI melanoma,> 100 µM
same,TGI,LXFL 529 NSCLC,> 100 µM
same,TGI,M14 melanoma,> 100 µM
same,TGI,M19-MEL melanoma,> 100 µM
same,TGI,MALME-3M melanoma,> 100 µM
same,TGI,MCF7 breast,> 100 µM
same,TGI,MDA-MB-435,> 100 µM
same,TGI,MDA-N,> 100 µM
same,TGI,MOLT-4 leukemia,> 100 µM
same,TGI,NCI-H226 lung,> 100 µM
same,TGI,NCI-H23 lung,> 100 µM
same,TGI,NCI-H460 lung,> 100 µM
same,TGI,NCI-H522 lung,> 100 µM
same,TGI,NCI/ADR-RES ovarian,> 100 µM
same,TGI,OVCAR-3 ovarian,> 100 µM
same,TGI,OVCAR-4 ovarian,> 100 µM
same,TGI,OVCAR-5 ovarian,> 100 µM
same,TGI,OVCAR-8 ovarian,> 100 µM
same,TGI,PC-3 prostate,> 100 µM
same,TGI,RPMI-8226 leukemia,> 100 µM
same,TGI,RXF 393 renal,> 100 µM
same,TGI,RXF-631 renal,> 100 µM
same,TGI,SF-268 CNS,> 100 µM
same,TGI,SF-295 CNS,> 100 µM
same,TGI,SF-539 CNS,> 100 µM
same,TGI,SK-MEL-2 melanoma,> 100 µM
same,TGI,SK-MEL-28 melanoma,> 100 µM
same,TGI,SK-MEL-5 melanoma,> 100 µM
same,TGI,SK-OV-3 ovarian,> 100 µM
same,TGI,SN12C renal,> 100 µM
same,TGI,SNB-19 CNS,> 100 µM
same,TGI,SNB-75 CNS,> 77.8 µM
same,TGI,SR leukemia,> 100 µM
same,TGI,SW-620 colon,> 100 µM
same,TGI,T-47D breast,> 100 µM
same,TGI,TK-10 renal,> 100 µM
same,TGI,U251 CNS,> 100 µM
same,TGI,UACC-257 melanoma,> 100 µM
same,TGI,UACC-62 melanoma,> 100 µM
same,TGI,UO-31 renal,> 100 µM
same,TGI,XF 498 CNS,> 93.8 µM
O=[N+]([O-])c1ccc(C2N3CCCCC3[C@H]3CCCCN23)cc1 (some centres undefined),TGI,786-0 renal,> 100 µM
same,TGI,A498 renal,> 100 µM
same,TGI,A549 NSCLC,> 100 µM
same,TGI,ACHN renal,> 100 µM
same,TGI,CAKI-1 renal,> 100 µM
same,TGI,CCRF-CEM leukemia,> 100 µM
same,TGI,COLO 205 colon,> 100 µM
same,TGI,DLD-1 colon,> 100 µM
same,TGI,DMS 273 small cell lung,> 100 µM
same,TGI,EKVX NSCLC,> 100 µM
same,TGI,HCT-116 colon,> 100 µM
same,TGI,HCT-15 colon,> 100 µM
same,TGI,HL-60(TB) leukemia,> 100 µM
same,TGI,HOP-18 NSCLC,> 100 µM
same,TGI,HOP-62 NSCLC,> 100 µM
same,TGI,HOP-92 NSCLC,> 100 µM
same,TGI,HT29 colon,> 100 µM
same,TGI,IGROV1 ovarian,> 100 µM
same,TGI,K-562 leukemia,> 100 µM
same,TGI,KM12 colon,> 100 µM
same,TGI,KM20L2 colon,> 100 µM
same,TGI,LOX IMVI melanoma,> 100 µM
same,TGI,LXFL 529 NSCLC,> 100 µM
same,TGI,M14 melanoma,> 100 µM
same,TGI,M19-MEL melanoma,> 100 µM
same,TGI,MALME-3M melanoma,> 100 µM
same,TGI,MOLT-4 leukemia,> 100 µM
same,TGI,NCI-H226 lung,> 100 µM
same,TGI,NCI-H23 lung,> 100 µM
same,TGI,NCI-H460 lung,> 100 µM
same,TGI,NCI-H522 lung,> 100 µM
same,TGI,OVCAR-3 ovarian,> 100 µM
same,TGI,OVCAR-4 ovarian,> 100 µM
same,TGI,OVCAR-5 ovarian,> 100 µM
same,TGI,OVCAR-8 ovarian,> 100 µM
same,TGI,RPMI-8226 leukemia,> 100 µM
same,TGI,RXF 393 renal,> 100 µM
same,TGI,RXF-631 renal,> 100 µM
same,TGI,SF-268 CNS,> 100 µM
same,TGI,SF-295 CNS,> 100 µM
same,TGI,SF-539 CNS,> 100 µM
same,TGI,SK-MEL-2 melanoma,> 100 µM
same,TGI,SK-MEL-28 melanoma,> 100 µM
same,TGI,SK-MEL-5 melanoma,> 100 µM
same,TGI,SK-OV-3 ovarian,> 100 µM
same,TGI,SN12C renal,> 100 µM
same,TGI,SNB-19 CNS,> 100 µM
same,TGI,SNB-75 CNS,> 100 µM
same,TGI,SNB-78 CNS,> 100 µM
same,TGI,SR leukemia,> 100 µM
same,TGI,SW-620 colon,> 100 µM
same,TGI,TK-10 renal,> 100 µM
same,TGI,U251 CNS,> 100 µM
same,TGI,UACC-257 melanoma,> 100 µM
same,TGI,UACC-62 melanoma,> 100 µM
same,TGI,UO-31 renal,> 100 µM
same,TGI,XF 498 CNS,> 100 µM
